What all share (assay): growth of human tumour cells (NCI), 48 h
For assay [1], the system named is NCI-H522 lung.
The subject of assay [2] is SNB-19 CNS.
In assay [3] the test system is COLO 205 colon.
Assay [4] concerns NCI-H460 lung.
Assay [5] deals with LOX IMVI melanoma.
The subject of assay [6] is MCF7 breast.
Assay [7] deals with OVCAR-4 ovarian.
Assay [8] deals with RPMI-8226 leukemia.

“And” between values parts separate entries of the source, which are not always exact repeats. Equal values may be shown once.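 A five-concentration, 48-hour dose response in 96-well plates underlies each endpoint, interpolated linearly between surrounding concentrations. GI50 is the concentration that inhibits growth by half. TGI is the concentration that stops growth completely.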

This is an account of results in PubChem BioAssay (NCI).

On to `CC(C)=CCc1c(O)c(C(=O)CC(C)C)c(O)c2c(-c3ccccc3)cc(=O)oc12`, for which the GI50 in assay [1] is 7.02 µM; in assay [2], 10.3 µM; in assay [3], 9.75 µM; in assay [4], 8.03 µM; in assay [5], 15.6 µM; in assay [6], 11.8 µM. In addition, the GI50 is 9.98 µM in assay [7] and 2.68 µM in assay [8]. The TGI in assay [1] was 28.2 µM; in assay [2] it was > 50 µM; in assay [3], 19 µM; in assay [4], > 50 µM; in assay [5] it was > 50 µM; in assay [6], > 50 µM. Also, the TGI was 35.6 µM in assay [7] and 16.6 µM in assay [8].
As for `NC(N)=NC(N)=Nc1ccc(S(N)(=O)=O)cc1`, the TGI in assay [1], in assay [2], in assay [3], in assay [4], in assay [5] and in assay [6] was > 100 µM each time. The TGI in assay [7] and in assay [8] was > 100 µM throughout.
`Clc1ccc(COC(Cn2ccnc2)c2ccc(Cl)cc2Cl)c(Cl)c1` (stereo not given): the TGI in assay [1] is 23.7 µM and 22.8 µM; in assay [2] it was 14.6 µM and 29.6 µM and 29.3 µM; in assay [3], 3.18 µM and 22.1 µM and 16.1 µM; in assay [4] it was 19.3 µM and > 100 µM and 35 µM; in assay [5] it was 16.2 µM and 34.3 µM and 24.8 µM; in assay [6], 12.4 µM and 27.8 µM and 33.3 µM. The TGI in assay [7] is 18.4 µM and 23.3 µM and 25.7 µM; in assay [8], 18.8 µM and 37.7 µM. Besides, the GI50 was 3.24 µM in assay [2]; 1.62 µM and 10.1 µM and 3.78 µM in assay [3]; 4.38 µM in assay [4]; 3.51 µM in assay [5]; 3.57 µM in assay [6]; 2.91 µM in assay [7]. The GI50 in assay [8] was 3.67 µM.
Take `O=C1CCC(N2C(=O)c3cccc(NCCOCCOCCNC(=O)c4cc5c(o4)C(=O)c4ccccc4C5=O)c3C2=O)C(=O)N1` (stereo not given): the GI50 was 1.71 µM in assay [1]; 1.55 µM in assay [2]; 1.98 µM in assay [3]; 1.97 µM in assay [4]; 1.1 µM in assay [5]; 1.35 µM in assay [6]. Besides, the GI50 in assay [7] was 1.29 µM; in assay [8] it was 2.43 µM. Further, the TGI in assay [1] amounted to 4.38 µM; in assay [2] it was 3.52 µM; in assay [3], 3.94 µM; in assay [4] it was 3.87 µM; in assay [5], 2.5 µM; in assay [6], 3.54 µM. The TGI in assay [7] is 2.57 µM; in assay [8] it was 7.85 µM.
As to `CC(=Nc1ccccc1)C1=C(O)C(Cc2ccc(F)cc2)NC1=O` (stereo not given), the GI50 in assay [1] is 0.237 µM; in assay [2] it was 4.75 µM; in assay [3] it was 0.421 µM; in assay [4], 0.44 µM; in assay [5] it was 0.619 µM; in assay [6] it was 0.412 µM. For the same compound, the GI50 in assay [7] was 14.4 µM; in assay [8], 0.859 µM. Further, the TGI in assay [1] is 2.1 µM; in assay [2] it was > 100 µM; in assay [3] it was 3.21 µM; in assay [4], > 100 µM; in assay [5], > 100 µM; in assay [6], > 100 µM. The TGI in assay [7] and in assay [8] was > 100 µM throughout.
As to `Cc1cc(C)c(O)c(CNCCCNCc2cc(C)cc(C)c2O)c1`, the GI50 in assay [1] was 3.41 µM; in assay [2], 3.88 µM; in assay [3] it was 1.89 µM; in assay [4] it was 2.13 µM; in assay [5], 1.52 µM; in assay [6] it was 1.67 µM. Also, the GI50 was 3.7 µM in assay [7] and 3.03 µM in assay [8]. The TGI in assay [1] is 14.1 µM; in assay [2], 15.1 µM; in assay [3], 3.89 µM; in assay [4], 4.65 µM; in assay [5], 2.88 µM; in assay [6] it was 3.36 µM. Moreover, the TGI in assay [7] came to 16.1 µM; in assay [8] it was 8.72 µM.
As to `C[C@H](C(O)CC(=O)C(C)(C)O)[C@H]1CC[C@@]2(C)[C@@H]3CC[C@H]4C(C)(C)[C@@H](OC5OC(COC6OC(CO)C(O)C(O)C6O)C(O)C(O)C5O)CC[C@]4(C)C3=CC[C@]12C` (stereo not given in full), the TGI in assay [1], in assay [2], in assay [3], in assay [4], in assay [5] and in assay [6] was > 100 µM in each case. In addition, the TGI in assay [7] and in assay [8] was > 100 µM throughout.
On to `CCC1(N)C(=O)OCc2c1cc1n(c2=O)Cc2cc3ccccc3nc2-1` (stereo not given), for which the GI50 in assay [1] is 8.51 µM; in assay [3], 16.7 µM; in assay [4], 1.72 µM; in assay [6], 2.82 µM; in assay [7], 38.2 µM; in assay [8] it was 3.66 µM. The TGI in assay [1] is > 100 µM; in assay [2], > 100 µM; in assay [3], > 100 µM; in assay [5], 28.2 µM and 33.6 µM; in assay [6], > 100 µM; in assay [7], > 100 µM. In assay [8], the TGI is 81.5 µM and > 100 µM.
Regarding `Cc1ccc(-n2c3c(c4c(CN)c(O)ccc42)CCc2ccccc2C3=O)cc1`, the GI50 in assay [1] was 9.3 µM; in assay [2], 19.9 µM; in assay [3], 19.5 µM; in assay [4], 7.33 µM; in assay [5], 16.3 µM; in assay [6], 17.3 µM. Besides, the GI50 is 20.8 µM in assay [7] and 4.31 µM in assay [8]. Moreover, the TGI was 23.6 µM in assay [1]; 38.4 µM in assay [2]; 47 µM in assay [3]; 28.4 µM in assay [4]; 32.2 µM in assay [5]; > 100 µM in assay [6]. For the same compound, the TGI in assay [7] turned out to be 46 µM; in assay [8] it was 23.1 µM.
Take `C#CCN(Cc1nc2cc(C(F)(F)F)ccc2nc1-c1ccccc1)c1ccc(F)cc1`: the GI50 is 22.4 µM in assay [1]; 34.9 µM in assay [2]; 13.8 µM in assay [3]; 27.8 µM in assay [4]; 30.5 µM in assay [5]; 23.2 µM in assay [6]. Further, the GI50 in assay [7] is 33.4 µM; in assay [8], 23.3 µM. Further, the TGI in assay [1] was > 100 µM; in assay [2], > 100 µM; in assay [3], 50.5 µM; in assay [4] it was > 100 µM; in assay [5], 97.8 µM; in assay [6] it was > 100 µM. Moreover, the TGI in assay [7] was > 100 µM; in assay [8] it was 68.7 µM.
